Three molecules from ChEMBL document CHEMBL3217748, “Chemical synthesis and biological study of 4-carboxymethyl-epiafzelechin acid, an osteoprotective compound from the rhizomes of Drynaria fortunei” (2012) can be followed below.

Calls of active or inactive are those of the source. No cut-off for these calls is given here.

The subject of assay [1] is UMR106. Nature of the assay: Induction of rat UMR106 cell proliferation after 24 hrs by MTS assay. Format: functional, cell-based.
Assay [2] can be described thus: Induction of rat UMR106 cell proliferation assessed as increase in cell number at 10^-10 to 10^-8 M after 24 hrs by MTS assay relative to control. Format: functional.
Assay [3] deals with UMR106. Nature of the assay: Induction of rat UMR106 cell proliferation after 24 hrs by MTS assay in presence of estrogen receptor antagonist ICI 182,780. In kind it is functional, cell-based. In general terms: Formazan colour is commonly taken as a measure of viable cells.
Assay [4] is described as follows: Induction of rat UMR106 cell differentiation at 10^-10 M after 24 hrs by ALP assay relative to control. In kind it is functional.
Assay [5] in a line: (§1) Induction of rat UMR106 cell differentiation at 10^-8 M after 24 hrs by ALP assay relative to control. Format: functional.
Assay [6] can be described thus: Induction of rat UMR106 cell differentiation at 10^-6 M after 24 hrs by ALP assay relative to control. Format: functional.
In assay [7] the test system is UMR106. In words: Induction of rat UMR106 cell differentiation after 24 hrs by ALP assay in presence of estrogen receptor antagonist ICI 182,780. In kind it is functional, cell-based.
Assay [8] has as its target Estrogen receptor beta (Homo sapiens) (UniProt Q92731). In words: Transactivation of human ER-beta transfected in rat UMR106 cells at 10^-14 to 10^-6 M after 24 hrs by dual luciferase reporter gene assay. Format: cell-based. For orientation: Reporter assays use an easily measured gene product as a stand-in for the process of interest.
The subject of assay [9] is UMR106. In words: Induction of rat UMR106 cell proliferation assessed as increase in cell number at 10^-8 M after 24 hrs by MTS assay. In kind it is functional, cell-based.
Assay [10] deals with UMR106. In words: Induction of rat UMR106 cell proliferation at 10^-8 M after 24 hrs by MTS assay in presence of estrogen receptor antagonist ICI 182,780. Format: functional, cell-based.
Assay [11] has as its system UMR106. The description is as §1. In kind it is functional.

Estrogen receptor beta (Homo sapiens), sequence (Q92731 whole entry): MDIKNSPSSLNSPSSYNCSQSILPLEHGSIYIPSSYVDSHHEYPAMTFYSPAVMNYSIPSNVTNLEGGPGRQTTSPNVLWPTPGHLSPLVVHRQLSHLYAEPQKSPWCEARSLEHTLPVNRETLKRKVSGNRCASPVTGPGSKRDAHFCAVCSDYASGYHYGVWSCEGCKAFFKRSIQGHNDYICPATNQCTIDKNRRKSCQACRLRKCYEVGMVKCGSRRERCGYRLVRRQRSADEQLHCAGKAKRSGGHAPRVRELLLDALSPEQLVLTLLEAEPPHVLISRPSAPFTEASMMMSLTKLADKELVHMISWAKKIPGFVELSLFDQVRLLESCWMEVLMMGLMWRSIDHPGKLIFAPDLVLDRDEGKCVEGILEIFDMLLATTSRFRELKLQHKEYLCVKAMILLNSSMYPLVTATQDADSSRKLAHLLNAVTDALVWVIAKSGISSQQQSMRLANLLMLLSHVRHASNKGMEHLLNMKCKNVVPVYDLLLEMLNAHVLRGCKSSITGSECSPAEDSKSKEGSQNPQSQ

With `O=C(O)C[C@H]1c2c(O)cc(O)cc2O[C@H](c2ccc(O)cc2)[C@@H]1O`, the Activity entry was “Dose-dependent effect” in assay [1], 18% in [4], 14% in [5] and 18% in assay [6]. The “fold change (FC)” value in [2] was 1.4. The outcome in assay [3] and in assay [8] was inactive. In addition, in assay [7], the result was Active.

Turning to `C[C@]12CC[C@@H]3c4ccc(O)cc4CC[C@H]3[C@@H]1CC[C@@H]2O`, the Activity entry in assay [1] was “Dose-dependent effect”. In addition, the result in assay [9], in [11] and in assay [7] was Active. The outcome in assay [10] was inactive.

Turning to `O=C1C[C@H]2c3c(O)cc(O)cc3O[C@H](c3ccc(O)cc3)[C@H]2O1`, the results for the Activity result in [1] and in assay [4] were “Dose-dependent effect” and 10%, respectively. Besides, the result in assay [3] and in assay [8] was inactive. Besides, the result in [7] was Active.
